Target: T1, PLK1 (Homo sapiens, UniProt P53350)
T1 construct: endogenous in cells; host or cells: HeLa
Assay: PLK1 protein degradation in HeLa cells, Western blotting (PLK1/GAPDH ratio)
Type: cell-based
Conditions: 6 hours compound incubation; for Dmax: thymidine block and release, 10 points three-fold from 3 μM, PLK1 to GAPDH ratio, read-out: Dmax; for DC50: measured only if the grade of Dmax is A or B
In short: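 Thymidine-synchronised HeLa cells (2 mM, 24 h) released 4 h into complete medium, then treated 6 h with compound in 10-point 3-fold dilutions from 3 μM. RIPA lysates (15 μg protein) run on SDS-PAGE; PLK1 Western blot normalised to GAPDH.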

T1 sequence (P53350 whole entry): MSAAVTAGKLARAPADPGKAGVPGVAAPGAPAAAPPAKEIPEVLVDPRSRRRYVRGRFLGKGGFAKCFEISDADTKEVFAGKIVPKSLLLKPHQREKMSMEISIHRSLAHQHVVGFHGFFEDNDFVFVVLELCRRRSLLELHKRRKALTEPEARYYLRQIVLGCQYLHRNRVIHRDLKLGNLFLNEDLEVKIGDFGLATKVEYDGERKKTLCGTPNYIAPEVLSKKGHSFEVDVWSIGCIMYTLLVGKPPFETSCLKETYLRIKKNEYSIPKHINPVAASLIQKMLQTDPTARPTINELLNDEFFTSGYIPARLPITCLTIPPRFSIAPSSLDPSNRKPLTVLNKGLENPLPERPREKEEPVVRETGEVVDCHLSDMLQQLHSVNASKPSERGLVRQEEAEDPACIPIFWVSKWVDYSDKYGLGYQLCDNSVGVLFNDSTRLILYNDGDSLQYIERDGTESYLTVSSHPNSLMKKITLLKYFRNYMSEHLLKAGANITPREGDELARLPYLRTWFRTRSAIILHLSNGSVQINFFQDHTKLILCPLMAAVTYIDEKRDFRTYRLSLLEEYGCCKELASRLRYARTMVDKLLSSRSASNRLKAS

| SMILES | Dmax | DC50 |
| --- | --- | --- |
| COc1cc(C(=O)N[C@H]2CCN(C(=O)CCNC(=O)CNc3cccc4c3C(=O)N(C3CCC(=O)NC3=O)C4=O)C2)c(F)cc1Nc1ncc2c(n1)N(C1CCCC1)CC(F)(F)C(=O)N2C (stereo partly drawn) [Compound 113, 4-((9-cyclopentyl-7,7-difluoro-5-methyl-6-oxo-6,7,8,9-tetrahydro-5H-pyrimido[4,5-b][1,4]diazepin-2-yl)amino)-N-((3S)-1-(3-(2-((2-(2,6-dioxopiperidin-3-yl)-1,3-dioxoisoindolin-4-yl)amino)acetamido)propanoyl)pyrrolidin-3-yl)-2-fluoro-5-methoxybenzamide] | < 60% | – |
| COc1cc(C(=O)NC2CCN(C(=O)CCOCCNc3cccc4c3C(=O)N(C3CCC(=O)NC3=O)C4=O)C2)c(F)cc1Nc1ncc2c(n1)N(C1CCCC1)CC(F)(F)C(=O)N2C (stereo not shown) [Compound 114, 4-((9-cyclopentyl-7,7-difluoro-5-methyl-6-oxo-6,7,8,9-tetrahydro-5H-pyrimido[4,5-b][1,4]diazepin-2-yl)amino)-N-(1-(3-(2-((2-(2,6-dioxopiperidin-3-yl)-1,3-dioxoisoindolin-4-yl)amino)ethoxy)propanoyl)pyrrolidin-3-yl)-2-fluoro-5-methoxybenzamide] | ≥ 80% | ≤ 50 nM |
| COc1cc(C(=O)N[C@H]2CCN(C(=O)COCCOCCNc3cccc4c3C(=O)N(C3CCC(=O)NC3=O)C4=O)C2)c(F)cc1Nc1ncc2c(n1)N(C1CCCC1)CC(F)(F)C(=O)N2C (stereo partly drawn) [Compound 115, 4-((9-cyclopentyl-7,7-difluoro-5-methyl-6-oxo-6,7,8,9-tetrahydro-5H-pyrimido[4,5-b][1,4]diazepin-2-yl)amino)-N-((3S)-1-(2-(2-(2-((2-(2,6-dioxopiperidin-3-yl)-1,3-dioxoisoindolin-4-yl)amino)ethoxy)ethoxy)acetyl)pyrrolidin-3-yl)-2-fluoro-5-methoxybenzamide] | ≥ 80% | ≤ 50 nM |
| COc1cc(C(=O)N[C@H]2CCN(C(=O)COCCOCCOCCOCCNc3cccc4c3C(=O)N(C3CCC(=O)NC3=O)C4=O)C2)c(F)cc1Nc1ncc2c(n1)N(C1CCCC1)CC(F)(F)C(=O)N2C (stereo partly drawn) [Compound 116, 4-((9-cyclopentyl-7,7-difluoro-5-methyl-6-oxo-6,7,8,9-tetrahydro-5H-pyrimido[4,5-b][1,4]diazepin-2-yl)amino)-N-((3S)-1-(14-((2-(2,6-dioxopiperidin-3-yl)-1,3-dioxoisoindolin-4-yl)amino)-3,6,9,12-tetraoxatetradecanoyl)pyrrolidin-3-yl)-2-fluoro-5-methoxybenzamide] | ≥ 80% | ≤ 50 nM |
| COc1cc(C(=O)NC2CCN(C(=O)CCCCNc3cccc4c3C(=O)N(C3CCC(=O)NC3=O)C4=O)C2)c(F)cc1Nc1ncc2c(n1)N(C1CCCC1)CC(F)(F)C(=O)N2C (stereo not shown) [Compound 117, 4-((9-cyclopentyl-7,7-difluoro-5-methyl-6-oxo-6,7,8,9-tetrahydro-5H-pyrimido[4,5-b][1,4]diazepin-2-yl)amino)-N-(1-(5-((2-(2,6-dioxopiperidin-3-yl)-1,3-dioxoisoindolin-4-yl)amino)pentanoyl)pyrrolidin-3-yl)-2-fluoro-5-methoxybenzamide] | ≥ 80% | ≤ 50 nM |
| COc1cc(C(=O)NC2CCN(C(=O)CCCCCNc3cccc4c3C(=O)N(C3CCC(=O)NC3=O)C4=O)C2)c(F)cc1Nc1ncc2c(n1)N(C1CCCC1)CC(F)(F)C(=O)N2C (stereo not shown) [Compound 118, 4-((9-cyclopentyl-7,7-difluoro-5-methyl-6-oxo-6,7,8,9-tetrahydro-5H-pyrimido[4,5-b][1,4]diazepin-2-yl)amino)-N-(1-(6-((2-(2,6-dioxopiperidin-3-yl)-1,3-dioxoisoindolin-4-yl)amino)hexanoyl)pyrrolidin-3-yl)-2-fluoro-5-methoxybenzamide] | ≥ 80% | ≤ 50 nM |
| COc1cc(C(=O)N[C@H]2CCN(C(=O)CCCCCNc3cccc4c3C(=O)N(C3CCC(=O)NC3=O)C4=O)C2)c(F)cc1Nc1ncc2c(n1)N(C1CCCC1)CC(F)(F)C(=O)N2C (stereo partly drawn) [Compound 119, 4-((9-cyclopentyl-7,7-difluoro-5-methyl-6-oxo-6,7,8,9-tetrahydro-5H-pyrimido[4,5-b][1,4]diazepin-2-yl)amino)-N-((3S)-1-(6-((2-(2,6-dioxopiperidin-3-yl)-1,3-dioxoisoindolin-4-yl)amino)hexanoyl)pyrrolidin-3-yl)-2-fluoro-5-methoxybenzamide] | ≥ 80% | ≤ 50 nM |
| COc1cc(C(=O)N[C@@H]2CCN(C(=O)CCCCCNc3cccc4c3C(=O)N(C3CCC(=O)NC3=O)C4=O)C2)c(F)cc1Nc1ncc2c(n1)N(C1CCCC1)CC(F)(F)C(=O)N2C (stereo partly drawn) [Compound 120, 4-((9-cyclopentyl-7,7-difluoro-5-methyl-6-oxo-6,7,8,9-tetrahydro-5H-pyrimido[4,5-b][1,4]diazepin-2-yl)amino)-N-((3R)-1-(6-((2-(2,6-dioxopiperidin-3-yl)-1,3-dioxoisoindolin-4-yl)amino)hexanoyl)pyrrolidin-3-yl)-2-fluoro-5-methoxybenzamide] | ≥ 80% | ≤ 50 nM |
| COc1cc(C(=O)N[C@H]2CCN(CC(=O)NCCOCCNc3cccc4c3C(=O)N(C3CCC(=O)NC3=O)C4=O)C2)c(F)cc1Nc1ncc2c(n1)N(C1CCCC1)CC(F)(F)C(=O)N2C (stereo partly drawn) [Compound 121, 4-((9-cyclopentyl-7,7-difluoro-5-methyl-6-oxo-6,7,8,9-tetrahydro-5H-pyrimido[4,5-b][1,4]diazepin-2-yl)amino)-N-((3S)-1-(2-((2-(2-((2-(2,6-dioxopiperidin-3-yl)-1,3-dioxoisoindolin-4-yl)amino)ethoxy)ethyl)amino)-2-oxoethyl)pyrrolidin-3-yl)-2-fluoro-5-methoxybenzamide] | ≥ 80% | ≤ 50 nM |
| COc1cc(C(=O)N[C@H]2CCN(CC(=O)NCCCNc3cccc4c3C(=O)N(C3CCC(=O)NC3=O)C4=O)C2)c(F)cc1Nc1ncc2c(n1)N(C1CCCC1)CC(F)(F)C(=O)N2C (stereo partly shown) [Compound 122] | ≥ 80% | ≤ 50 nM |
| COc1cc(C(=O)NC2CN(CCOCCOCCNc3cccc4c3C(=O)N(C3CCC(=O)NC3=O)C4=O)C2)c(F)cc1Nc1ncc2c(n1)N(C1CCCC1)CC(F)(F)C(=O)N2C (stereo not shown) [Compound 123, 4-((9-cyclopentyl-7,7-difluoro-5-methyl-6-oxo-6,7,8,9-tetrahydro-5H-pyrimido[4,5-b][1,4]diazepin-2-yl)amino)-N-(1-(2-(2-(2-((2-(2,6-dioxopiperidin-3-yl)-1,3-dioxoisoindolin-4-yl)amino)ethoxy)ethoxy)ethyl)azetidin-3-yl)-2-fluoro-5-methoxybenzamide] | ≥ 80% | ≤ 50 nM |
| COc1cc(C(=O)NCC2CCCN2CCOCCNc2cccc3c2C(=O)N(C2CCC(=O)NC2=O)C3=O)c(F)cc1Nc1ncc2c(n1)N(C1CCCC1)CC(F)(F)C(=O)N2C (stereo not shown) [Compound 124, 4-((9-cyclopentyl-7,7-difluoro-5-methyl-6-oxo-6,7,8,9-tetrahydro-5H-pyrimido[4,5-b][1,4]diazepin-2-yl)amino)-N-((1-(2-(2-((2-(2,6-dioxopiperidin-3-yl)-1,3-dioxoisoindolin-4-yl)amino)ethoxy)ethyl)pyrrolidin-2-yl)methyl)-2-fluoro-5-methoxybenzamide] | 60 to 80% | ≤ 500 nM |
| COc1cc(C(=O)NCC2CCCN(CCOCCNc3cccc4c3C(=O)N(C3CCC(=O)NC3=O)C4=O)C2)c(F)cc1Nc1ncc2c(n1)N(C1CCCC1)CC(F)(F)C(=O)N2C (stereo not shown) [Compound 125, 4-((9-cyclopentyl-7,7-difluoro-5-methyl-6-oxo-6,7,8,9-tetrahydro-5H-pyrimido[4,5-b][1,4]diazepin-2-yl)amino)-N-((1-(2-(2-((2-(2,6-dioxopiperidin-3-yl)-1,3-dioxoisoindolin-4-yl)amino)ethoxy)ethyl)piperidin-3-yl)methyl)-2-fluoro-5-methoxybenzamide] | ≥ 80% | ≤ 50 nM |
| COc1cc(C(=O)NCC2CCCCN2CCOCCNc2cccc3c2C(=O)N(C2CCC(=O)NC2=O)C3=O)c(F)cc1Nc1ncc2c(n1)N(C1CCCC1)CC(F)(F)C(=O)N2C (stereo not shown) [Compound 126, 4-((9-cyclopentyl-7,7-difluoro-5-methyl-6-oxo-6,7,8,9-tetrahydro-5H-pyrimido[4,5-b][1,4]diazepin-2-yl)amino)-N-((1-(2-(2-((2-(2,6-dioxopiperidin-3-yl)-1,3-dioxoisoindolin-4-yl)amino)ethoxy)ethyl)piperidin-2-yl)methyl)-2-fluoro-5-methoxybenzamide] | 60 to 80% | ≤ 500 nM |
| COc1cc(C(=O)NC2CCN(CCOCCNC(=O)COc3cccc4c3C(=O)N(C3CCC(=O)NC3=O)C4=O)C2)c(F)cc1Nc1ncc2c(n1)N(C1CCCC1)CC(F)(F)C(=O)N2C (stereo not shown) [Compound 127, 4-((9-cyclopentyl-7,7-difluoro-5-methyl-6-oxo-6,7,8,9-tetrahydro-5H-pyrimido[4,5-b][1,4]diazepin-2-yl)amino)-N-(1-(2-(2-(2-((2-(2,6-dioxopiperidin-3-yl)-1,3-dioxoisoindolin-4-yl)oxy)acetamido)ethoxy)ethyl)pyrrolidin-3-yl)-2-fluoro-5-methoxybenzamide] | 60 to 80% | ≤ 500 nM |
| COc1cc(C(=O)NC2CCN(C(=O)CCN3CCN(c4cccc5c4C(=O)N(C4CCC(=O)NC4=O)C5=O)CC3)CC2)ccc1Nc1ncc2c(n1)N(C1CCCC1)CC(F)(F)C(=O)N2C (stereo not shown) [Compound 128, 4-((9-cyclopentyl-7,7-difluoro-5-methyl-6-oxo-6,7,8,9-tetrahydro-5H-pyrimido[4,5-b][1,4]diazepin-2-yl)amino)-N-(1-(3-(4-(2-(2,6-dioxopiperidin-3-yl)-1,3-dioxoisoindolin-4-yl)piperazin-1-yl)propanoyl)piperidin-4-yl)-3-methoxybenzamide] | ≥ 80% | ≤ 50 nM |

Source: US20230372498A1, “PLK1 SELECTIVE DEGRADATION INDUCING COMPOUND” (UPPTHERA, priority 2020, published 2023)
